One data set deals with M. tuberculosis H37Rv. In words: resazurin reduction assay (MIC99), M. tuberculosis H37Rv. Type of data set: cell-based. The following applies: Mycobacterium tuberculosis, BTZ-susceptible wild type strain. The protocol: Activity against M. tuberculosis strains H37Rv and NBT1 was determined by the resazurin reduction assay (MIC99). The method is described in detail in: J. C. Palomino, A. Martin, M. Camacho, H. Guerra, J. Swings, F. Portaels, Antimicrob. Agents Chemother., 2002, 46, 2720-2722.
Background: Alamar Blue is a resazurin reagent that responds to reducing activity.

Values after ≈ are worked out from the molar mass of the structure shown.

For `CCCCN1CCN(c2nc(=O)c3cc(C(F)(F)F)cc([N+](=O)[O-])c3s2)CC1.Cl` (hydrate or solvate), the melting point (usually the temperature of the solid-liquid transition) was in the range of 239 to 241 °C.
`CCCCCCCN1CCN(c2nc(=O)c3cc(C(F)(F)F)cc([N+](=O)[O-])c3s2)CC1.Cl` (hydrate or solvate): the melting point is 254 to 256 °C.
Turning to `CCCCCCCN1CCCN(c2nc(=O)c3cc(C(F)(F)F)cc([N+](=O)[O-])c3s2)CC1.Cl` [Compound 5, 2-(4-Heptyl-1,4-diazepan-1-yl)-8-nitro-6-(trifluoromethyl)-4H-1,3-benzothiazin-4-one Hydrochloride], the melting point lay within 256 to 258 °C. In the data set with M. tuberculosis H37Rv, the MIC99 (commonly the lowest concentration that inhibits either 99% of growth or 99% of the strains tested, depending on the study) came to 0.3 ng/mL.
The like results for `CCCCCN1CCCN(c2nc(=O)c3cc(C(F)(F)F)cc([N+](=O)[O-])c3s2)CC1.Cl` [Compound 2, 8-Nitro-2-(4-pentyl-1,4-diazepan-1-yl)-6-(trifluoromethyl)-4H-1,3-benzothiazin-4-one Hydrochloride] were, in that order, 246 to 248 °C and 0.2 ng/mL.
In turn, `O=c1nc(N2CCN(CC3CCCCC3)CC2)sc2c([N+](=O)[O-])cc(C(F)(F)F)cc12` [PBTZ169, 2-[4-(cyclohexylmethyl)piperazin-1-yl]-8-nitro-6-(trifluoromethyl)-4H-1,3-benzothiazin-4-one, reference compound] gave an MIC99 against M. tuberculosis H37Rv of 0.3 ng/mL (≈ 0.657 nM).
Take `Cl.O=c1nc(N2CCCN(C3CCCCC3)CC2)sc2c([N+](=O)[O-])cc(C(F)(F)F)cc12` (hydrate or solvate) [Compound 6, 2-(4-Cyclohexyl-1,4-diazepan-1-yl)-8-nitro-6-(trifluoromethyl)-4H-1,3-benzothiazin-4-one Hydrochloride]: the melting point lay within 290 to 293 °C.
Consider `CCCCCCN1CCCN(c2nc(=O)c3cc(C(F)(F)F)cc([N+](=O)[O-])c3s2)CC1.Cl` [Compound 3, 2-(4-Hexyl-1,4-diazepan-1-yl)-8-nitro-6-(trifluoromethyl)-4H-1,3-benzothiazin-4-one Hydrochloride], for which the melting point was in the range of 249 to 251 °C. In addition, in the data set on M. tuberculosis H37Rv, the MIC99 came to 0.2 ng/mL.
The compound `Cl.O=c1nc(N2CCN(CCCCOc3ccccc3)CC2)sc2c([N+](=O)[O-])cc(C(F)(F)F)cc12` showed a melting point of 256 to 258 °C.
`Cl.O=c1nc(N2CCCN(CCC3CCCCC3)CC2)sc2c([N+](=O)[O-])cc(C(F)(F)F)cc12` [Compound 4, 2-[4-(2-Cyclohexylethyl)-1,4-diazepan-1-yl]-8-nitro-6-(trifluoromethyl)-4H-1,3-benzothiazin-4-one Hydrochloride] came in with a melting point of 274 to 277 °C. Besides, in the data set with M. tuberculosis H37Rv, the MIC99 is 0.2 ng/mL.
In the data set on M. tuberculosis H37Rv, `Cl.O=c1nc(N2CCCN(CCc3ccccc3)CC2)sc2c([N+](=O)[O-])cc(C(F)(F)F)cc12` [Compound 7, 8-Nitro-2-[4-(2-phenylethyl)-1,4-diazepan-1-yl]-6-(trifluoromethyl)-4H-1,3-benzothiazin-4-one Hydrochloride] gave an MIC99 of 0.8 ng/mL.
Regarding `Cl.O=c1nc(N2CCCN(CC3CCCCC3)CC2)sc2c([N+](=O)[O-])cc(C(F)(F)F)cc12` [Compound 1, 2-[4-(Cyclohexylmethyl)-1,4-diazepan-1-yl]-8-nitro-6-(trifluoromethyl)-4H-1,3-benzothiazin-4-one Hydrochloride], the melting point was 269 to 271 °C. In addition, in the data set on M. tuberculosis H37Rv, the MIC99 was found to be 1 ng/mL.
As to `Cl.O=c1nc(N2CCCN(C3CCCCC3)CC2)sc2c([N+](=O)[O-])cc(C(F)(F)F)cc12` [Compound 6, 2-(4-Cyclohexyl-1,4-diazepan-1-yl)-8-nitro-6-(trifluoromethyl)-4H-1,3-benzothiazin-4-one Hydrochloride], in the data set on M. tuberculosis H37Rv, the MIC99 was 1 ng/mL.
Compound `Cl.O=c1nc(N2CCN(CCC3CCCCC3)CC2)sc2c([N+](=O)[O-])cc(C(F)(F)F)cc12` (hydrate or solvate) came in with a melting point of 271 to 273 °C.
`Cl.O=c1nc(N2CCCN(CCc3ccccc3)CC2)sc2c([N+](=O)[O-])cc(C(F)(F)F)cc12` (hydrate or solvate) [Compound 7, 8-Nitro-2-[4-(2-phenylethyl)-1,4-diazepan-1-yl]-6-(trifluoromethyl)-4H-1,3-benzothiazin-4-one Hydrochloride] gave a melting point of 264 to 267 °C.
